The molecules below were run on A/Udorn/72 (H3N2) virus (assay: Plaque assay in MDCK cells: EC50 by reduction of plaque number). Conditions: MDCK.
Assay type: cell-based, influenza virus

| Structure (SMILES) | EC50 |
| --- | --- |
| COc1cc(OC)cc(-c2cc(CCCCCCO)c(/C=C3\SC(=S)N(C4C5CC6CC(C5)CC4C6)C3=O)o2)c1 (centres unmarked) [Compound 112] | < 100 nM |
| O=C1/C(=C/c2oc(-c3ccc(F)cc3)cc2CCCCO)SC(=S)N1C1CC2CCC1C2 (centres unmarked) [Compound 115] | < 100 nM |
| O=C1/C(=C/c2oc(-c3ccc(F)cc3)cc2CCCCO)SC(=S)N1C1C2CC3CC(C2)CC1C3 (centres unmarked) [Compound 116] | < 100 nM |
| NCCCc1cc(-c2ccc(F)cc2)oc1/C=C1\SC(=S)N(C2C3CC4CC(C3)CC2C4)C1=O (centres unmarked) [Compound 126] | < 100 nM |
| NCCCc1cc(-c2ccc(F)cc2)oc1/C=C1\SC(=S)N(C2CC3CCC2C3)C1=O (centres unmarked) [Compound 127] | < 100 nM |
| COc1cc(OC)cc(-c2cc(/C=C/C(=O)O)c(/C=C3\SC(=S)N(C4C5CC6CC(C5)CC4C6)C3=O)o2)c1 (centres unmarked) [Compound 131] | < 100 nM |
| COc1cc(OC)cc(-c2cc(CCC(=O)O)c(/C=C3\SC(=S)N(C4CC5CCC4C5)C3=O)o2)c1 (centres unmarked) [Compound 132] | < 100 nM |
| COc1cc(OC)cc(-c2cc(CCCN(CC(=O)O)CC(=O)O)c(/C=C3\SC(=S)N(C4CC5CCC4C5)C3=O)o2)c1 (centres unmarked) [Compound 133] | 100 to 250 nM |
| COc1cc(OC)cc(-c2cc(CCCC(C(=O)O)C(=O)O)c(/C=C3\SC(=S)N(C4CC5CCC4C5)C3=O)o2)c1 (centres unmarked) [Compound 134] | < 100 nM |
| COc1cc(OC)cc(-c2cc(CCCC(C(=O)O)C(=O)O)c(/C=C3\SC(=S)N(C4C5CC6CC(C5)CC4C6)C3=O)o2)c1 (centres unmarked) [Compound 135] | 100 to 250 nM |
| COc1cc(O)cc(-c2cc(CCCC(C(=O)O)C(=O)O)c(/C=C3\SC(=S)N(C4C5CC6CC(C5)CC4C6)C3=O)o2)c1 (centres unmarked) [Compound 136] | 100 to 250 nM |
| COc1cc(OC)cc(-c2cc(CCCOC(=O)[C@H](CCCNC(=O)OC(C)(C)C)NC(=O)OC(C)(C)C)c(/C=C3\SC(=S)N(C4CC5CCC4C5)C3=O)o2)c1 (some centres unmarked) [Compound 139] | < 100 nM |
| COc1cc(OC)cc(-c2cc(CCCOC(=O)[C@H](CC(C)C)NC(=O)OCC3c4ccccc4-c4ccccc43)c(/C=C3\SC(=S)N(C4CC5CCC4C5)C3=O)o2)c1 (some centres unmarked) [Compound 141] | 250 to 1000 nM |
| COc1cc(OC)cc(-c2cc(CCCOC(=O)[C@H](Cc3ccccc3)NC(=O)OC(C)(C)C)c(/C=C3\SC(=S)N(C4CC5CCC4C5)C3=O)o2)c1 (some centres unmarked) [Compound 142] | < 100 nM |
| COc1cc(OC)cc(-c2cc(CCCOC(=O)[C@@H](NC(=O)OC(C)(C)C)c3ccccc3)c(/C=C3\SC(=S)N(C4CC5CCC4C5)C3=O)o2)c1 (some centres unmarked) [Compound 146] | < 100 nM |
| CC(C)(C)OC(=O)N[C@@H](CC(N)=O)C(=O)OCCCc1cc(-c2ccc(F)cc2)oc1/C=C1\SC(=S)N(C2CC3CCC2C3)C1=O (some centres unmarked) [Compound 147] | < 100 nM |
| CC(C)(C)OC(=O)N[C@@H](CC(N)=O)C(=O)OCCCc1cc(-c2ccc(Cl)cc2)oc1/C=C1\SC(=S)N(C2CC3CCC2C3)C1=O (some centres unmarked) [Compound 148] | < 100 nM |
| COc1cc(O)cc(-c2cc(CCCOC(=O)[C@H](CC(=O)OC(C)(C)C)NC(=O)OC(C)(C)C)c(/C=C3\SC(=S)N(C4CC5CCC4C5)C3=O)o2)c1 (some centres unmarked) [Compound 149] | < 100 nM |
| COc1cc(OC)cc(-c2cc(CCCCCOC(=O)[C@H](CC(N)=O)NC(=O)OC(C)(C)C)c(/C=C3\SC(=S)N(C4CC5CCC4C5)C3=O)o2)c1 (some centres unmarked) [Compound 150] | < 100 nM |
| COc1cc(OC)cc(-c2cc(CCCOC(=O)[C@@H](N)Cc3ccccc3)c(/C=C3\SC(=S)N(C4CC5CCC4C5)C3=O)o2)c1 (some centres unmarked) [Compound 153] | < 100 nM |
| COc1cc(OC)cc(-c2cc(CCCOC(=O)[C@@H](N)c3ccccc3)c(/C=C3\SC(=S)N(C4CC5CCC4C5)C3=O)o2)c1 (some centres unmarked) [Compound 154] | < 100 nM |
| COc1cc(OC)cc(-c2cc(CCCNC(=O)[C@H](CC(=O)OC(C)(C)C)NC(=O)OC(C)(C)C)c(/C=C3\SC(=S)N(C4CC5CCC4C5)C3=O)o2)c1 (some centres unmarked) [Compound 158] | < 100 nM |
| COc1cc(OC)cc(-c2cc(CCCNC(=O)[C@H](CC(C)C)NC(=O)OCC3c4ccccc4-c4ccccc43)c(/C=C3\SC(=S)N(C4CC5CCC4C5)C3=O)o2)c1 (some centres unmarked) [Compound 159] | < 100 nM |
